# Measurements from US20080200433A1, “Molecular Chaperone Function Regulator” (priority 2004, published 2008).
# Legend:
# HSP70 [1] = assay: Induction of HSP70 in T-47D cells (Western blot); format: cell-based, human; details: 10 μM, 9 hr; for HSP70 expression, Experiment 2 (T/C, %): control = 100, Experiment 2; for HSP70 expression, Experiment 1 (T/C, %): control = 100, Experiment 1
# Experimental: (Method) T-47D cells were cultured in a 12-well plate and, at the time point when the cells grew to about 70-80%, compounds A, B, C, D, E and F were each added to 10 μM.
# (§1) DMSO (0.1%) was added to the control. After the addition, the cells were collected 9 hr later and cell extracts were prepared. Expression of HSP70 protein in the cell extracts was examined by Western blot using an HSP70 specific antibody. T/C (%) was determined using the amount of chemical luminescence on a PVDF film due to an HRP-labeled secondary antibody as the HSP70 expression amount and HSP70 expression amount of the cells in the control well as 100.
# ubiquitinated protein = assay: Induction of ubiquitinated protein in T-47D cells (Western blot); format: cell-based, human; details: vs DMSO control (FIG. 7)
# Experimental: DMSO (0.1%) was added to the control. After the addition, the cells were collected 1, 3, 6 and 24 hr later and cell extracts were prepared. Expression of ubiquitinated protein in the cell extracts was examined by Western blot using a ubiquitin specific antibody. T/C (%) was determined using the amount of chemical luminescence on a PVDF film due to an HRP-labeled secondary antibody as the ubiquitinated protein expression amount and the expression amount of the cell extract in the control well as 100.
# HSP70 [2] = assay: Time-dependent HSP70 induction in A-431 cells (Western blot); format: cell-based, human; details: 10 μM, vs DMSO control (FIG. 1)
# Experimental: as §1, with “6, 9, 12 and 24” for “9”
# HSP70 [3] = assay: Induction of HSP70 in various human tumor-derived cells (Western blot); format: cell-based; details: TE-8, NCI-H520, HPAC, DU145, KPL-4, MKN-45, HL-60 and DLD-1 cells, 10 μM, 9 hr, vs DMSO control (FIG. 2)
# Experimental: (Method) As to the induction of HSP70 by compound A, induction in various human tumor cells was examined.
# TE-8 cell, NCI-H520 cell, HPAC cell, DU145 cell, KPL-4 cell, MKN-45 cell, HL-60 cell and DLD-1 cell were each were cultured in a 12-well plate.
# DMSO (0.1%) was added to a control well. After the addition, the cells were collected 9 hr later and cell extracts were prepared. Expression of HSP70 protein in the tumor cell extracts was examined by Western blot using an HSP70 specific antibody.
# [4] = test system: client proteins EGFR, HER2, ERα, AR, AKT and CDK4 of HSP90 chaperone; assay: Suppressive action on HSP90 client protein expression in MCF-7 cells (Western blot); format: cell-based, human; details: 10 μM, 24 hr, vs DMSO control (FIG. 3)
# Experimental: After the addition of the compound, the cells were collected and divided in two 24 hr later. Cell extracts were prepared from half the cells, and cytoplasmic fraction and nuclear fraction were prepared from the remaining half. […] Expression of client in each tumor cell extract and nuclear fraction was examined by Western blot using an antibody specific to each client.
# [5] = test system: human breast cancer-derived MCF-7 cell; assay: Suppressive effect on estradiol (E2)-dependent cell growth (XTT); format: cell-based; details: 10 nM E2, Day 10, XTT; compound A 0.037-3 μM, tamoxifen 0.062-5 μM (FIG. 4)
# From the text: (Method) Using human breast cancer-derived MCF-7 cell that expresses estrogen receptor and grows in response to estradiol (E2, 17β-Estradiol, Cat. #E 1024, Sigma Ltd.), the effect of compound A on the cell growth in the presence of E2 was examined. As the control compound, tamoxifen (Cancer Res., 62, 2474-2477, 2002) (Cat. #T 9262, Sigma Ltd.) known to suppress growth of human breast cancer-derived MCF-7 cell by E2 stimulation was used. MCF-7 cells were suspended in a phenol red non-addition DME-F12 mixed medium containing 5% fetal calf serum treated with activated carbon, and cultured at 2×10^4 cells/well in a 24 well plate. […]
# The cell growth activity was measured on Day 10 by the dye method using XTT.
# That is, after the completion of the culture, XTT was added to each well and, after color development for 4 hr, the reaction mixture was transferred to a 96 well plate, and the absorbance at 492 nm was measured.
# The suppression rate was calculated from the following formula.
# Suppression rate (%)={1−[(absorbance of compound addition well in the presence of E2)−(absorbance of control well without E2 addition)]÷[(absorbance of control well in the presence of E2)−(absorbance of control well without E2 addition)]×100
# [6] = test system: human prostate cancer-derived DU 145 cells; assay: Cell growth suppression by combined hyperthermic treatment and compound (XTT); format: cell-based; details: 0.37-10 μM, 43° C. 4 hr vs 37° C., then 24 hr culture, XTT (FIG. 5)
# Experimental: (Method) Using human prostate cancer-derived DU 145 cells, the effect of compound A on the cell growth suppressive action during hyperthermic treatment was examined. DU 145 cells were cultured at 1×10^4 cells/well in two 96 well plates. The next day, compound A was added to each plate to 0.37, 1.1, 3.3 and 10 μM, one plate was incubated for 4 hr in a 5% CO2 incubator set to 43° C. (heat treatment), and the other plate was incubated in the same manner for 4 hr in a 5% CO2 incubator set to 37° C. After 4 hr, the wells were washed 3 times with saline, a growth medium was added and cultured in a 5% CO2 incubator at 37° C. for 24 hr.
# The cell growth activity was measured by the dye method using XTT as in Example 4. That is, after the culture, XTT was added to each well and, 4 hr later, the absorbance at 492 nm was measured.
# T/C (%) was determined from the following formula with the absorbance of the control well in the plate without the heat treatment as 100.
# T/C (%)=[absorbance of heat-treated control well or compound-treated well÷absorbance of control well without heat treatment]×100
# [7] = test system: human breast cancer-derived MCF-7 implanted in nude mouse; assay: Antitumor effect on human breast cancer-derived MCF-7 implanted in nude mouse; format: in vivo; details: 100 mg/kg orally once a day for 2 weeks, vs solvent control, Dunnett's test p<0.05 (FIG. 6)
# Experimental: (Method) Human breast cancer-derived MCF-7 cells were subcutaneously implanted in female nude mouse purchased from CLEA Japan, Inc. The effect of compound A on the growth was examined. A 17β-estradiol solution was added dropwise to a small piece of glass microfibre filter GF/B (Whatman, #1821 05) to give a pellet (500 μg/filter). The pellet was subcutaneously implanted in the neck of female Balb/c nude mouse, and MCF-7 cells were subcutaneously implanted in the right back at 5×10^6 cells/mouse. From 7 days after the implantation, compound A was orally administered at 30 mg/kg and 100 mg/kg to nude mice (5 per group) once a day for 2 weeks.
# The 0.5% tragacanth solution used as a solvent was similarly administered to the control. The next day of the final administration, the nude mice were sacrificed under anesthesia, and the subcutaneous tumor was isolated and weighed. The mean tumor weight and standard error of each group were calculated, and statistically analyzed by the Dunnett's test and using the solvent administration group as a control.
smiles,measurement,setting,value
"C=CC(=O)Nc1cc2c(Nc3ccc(F)c(Cl)c3)ncnc2cc1C#CC(C)(C)N1CCN(CCOC)CC1 [B, N-([4-(3-Chloro-4-fluorophenyl)amino]-7-{3-[4-(2-methoxyethyl)-1-piperazinyl]-3-methyl-1-butynyl}-6-quinazolinyl)acrylamide]","HSP70 expression, Experiment 2 (T/C, %)",HSP70 [1],482%
"C=CC(=O)Nc1cc2c(Nc3ccc(F)c(Cl)c3)ncnc2cc1C#CCN1CCN(C)CC1 [C, N-{4-[(3-Chloro-4-fluorophenyl)amino]-7-[3-(4-methyl-1-piperazinyl)-1-propynyl]-6-quinazolinyl}acrylamide]","HSP70 expression, Experiment 1 (T/C, %)",HSP70 [1],207%
"C=CC(=O)Nc1cc2c(Nc3cccc(C#N)c3)ncnc2cc1C#CC(C)(C)N1CCN(C)CC1 [D, N-{4-[(3-Cyano-phenyl)amino]-7-[3-methyl-3-(4-methyl-1-piperazinyl)-1-butynyl]-6-quinazolinyl}acrylamide]","HSP70 expression, Experiment 2 (T/C, %)",HSP70 [1],446%
"C=CC(=O)Nc1cc2c(Nc3ccc(F)c(Cl)c3)ncnc2cc1C#CC1(N2CCN(C)CC2)CCOCC1 [E, N-{4-[(3-Chloro-4-fluorophenyl)amino]-7-[4-(4-methyl-1-piperazinyl)-4-tetrahydropyranylethynyl]-6-quinazolinyl}acrylamide]","HSP70 expression, Experiment 1 (T/C, %)",HSP70 [1],172%
"CCOc1cc2ncnc(Nc3ccc(F)c(Cl)c3)c2cc1C#CC(C)(C)N(C)C1CCN(C)CC1 [F, (3-Chloro-4-fluorophenyl)-(7-ethoxy-6-{3-methyl-3-[methyl-(1-methyl-4-piperidinyl)amino]-1-butynyl}-4-quinazolinyl)amine]","HSP70 expression, Experiment 1 (T/C, %)",HSP70 [1],141%
"CC(C)C[C@H](NC(=O)[C@H](Cc1ccccc1)NC(=O)c1cnccn1)B(O)O [bortezomib, reference compound]",amount of ubiquitinated protein,"ubiquitinated protein; 3 μM, 1, 3, 6 and 24 hr",remarkably appeared from 3 hr after the treatment
C=CC(=O)Nc1cc2c(Nc3ccc(F)c(Cl)c3)ncnc2cc1C#CC(C)(C)N1CCN(C)CC1 [compound A],expression of HSP70,HSP70 [2]; 6 hr to 12 hr after treatment,increased in a time-dependent manner
same,expression of HSP70,HSP70 [2]; 24 hr after treatment,markedly decreased
same,HSP70 expression,HSP70 [3],increased
same,expression of HSP90 client proteins,[4],decreased expression
same,growth of MCF-7 cells by E2 stimulation,[5],suppresses the growth
same,cell death due to heat shock,[6],cell death due to heat shock is enhanced
same,tumor weight,[7],significantly decreased
same,"HSP70 expression, Experiment 1 (T/C, %)",HSP70 [1],299%
same,"HSP70 expression, Experiment 2 (T/C, %)",HSP70 [1],895%
same,amount of ubiquitinated protein,"ubiquitinated protein; 1 μM, 1, 3, 6 and 24 hr",did not occur until after 24 hr
same,amount of ubiquitinated protein,"ubiquitinated protein; 3 μM, 1, 3, 6 and 24 hr",increased from 6 hr after the treatment
same,amount of ubiquitinated protein,"ubiquitinated protein; 10 μM, 1, 3, 6 and 24 hr",increased from 6 hr after the treatment
"COc1cc2ncnc(Nc3ccc(F)c(Cl)c3)c2cc1OCCCN1CCOCC1 [gefinitib, 4-(3′-Chloro-4′-fluoroanilino)-7-methoxy-6-(3-morpholinopropoxy)quinazoline, reference compound]",HSP70 expression,HSP70 [3],did not show a clear increase
"CC/C(=C(\c1ccccc1)c1ccc(OCCN(C)C)cc1)c1ccccc1 [tamoxifen, reference compound]",growth of MCF-7 cells by E2 stimulation,[5],suppresses the growth
